According to patent US20150152395A1, “CHIMERIC LUCIFERASES” (Connecticut College, priority 2012, published 2015):

Key:
[1] = tested on: PpyLit, chimeric luciferase of PpyWT residues 1-439 and LitWT residues 440-550, SEQ ID NO: 8; test: Relative rate of adenylate formation (L-AMP formation from dehydroluciferin), fluorescence-based; type: biochemical, Photinus pyralis / Luciola italica; conditions: faster than PpyWT, pH 7.4
Protocol: Using an excitation wavelength of 350 nm, the luciferase-catalyzed formation of L-AMP from dehydroluciferin (L), initiated by the addition of Mg-ATP, was assessed by following the decrease in the intensity of the 440 nm fluorescence of the initial enzyme-L complex. The change in fluorescence was used to estimate the rates of L-AMP formation catalyzed by the luciferases. Assays (0.4 mL) in 50 mM Tris buffer, pH 7.4 contained 2.8 μM enzyme and 0.55 μM L. The initial fluorescence at 440 nm was recorded and then the decrease was monitored following the rapid injection of 50 μL solutions of varying concentrations of Mg-ATP in the same buffer. The rates of decrease (slopes) were calculated and used to determine the initial velocities for each Mg-ATP concentration. The data were fitted using a nonlinear least squares method of the Enzyme Kinetics Pro software (SynTex), which fits data from the Michalis-Menten equation to a rectangular hyperbola, and the Vmax values were obtained. The corresponding kcat values were obtained by dividing the Vmax values (μmol/s) by the final amounts (μmol) of each luciferase in the assay mixtures.

[2] = target: Photinus pyralis luciferase, recombinant wild type (PpyWT), SEQ ID NO: 4, with N-terminal peptide GPLGS (Photinus pyralis, UniProt P08659); test: Steady-state kinetic constants, bioluminescence activity; type: biochemical; conditions: pH 7.8; Vmax from LH2 Km measurement
Sequence of Photinus pyralis luciferase, recombinant wild type (PpyWT), SEQ ID NO: 4, with N-terminal peptide GPLGS (P08659 whole entry, the tested form may be a part): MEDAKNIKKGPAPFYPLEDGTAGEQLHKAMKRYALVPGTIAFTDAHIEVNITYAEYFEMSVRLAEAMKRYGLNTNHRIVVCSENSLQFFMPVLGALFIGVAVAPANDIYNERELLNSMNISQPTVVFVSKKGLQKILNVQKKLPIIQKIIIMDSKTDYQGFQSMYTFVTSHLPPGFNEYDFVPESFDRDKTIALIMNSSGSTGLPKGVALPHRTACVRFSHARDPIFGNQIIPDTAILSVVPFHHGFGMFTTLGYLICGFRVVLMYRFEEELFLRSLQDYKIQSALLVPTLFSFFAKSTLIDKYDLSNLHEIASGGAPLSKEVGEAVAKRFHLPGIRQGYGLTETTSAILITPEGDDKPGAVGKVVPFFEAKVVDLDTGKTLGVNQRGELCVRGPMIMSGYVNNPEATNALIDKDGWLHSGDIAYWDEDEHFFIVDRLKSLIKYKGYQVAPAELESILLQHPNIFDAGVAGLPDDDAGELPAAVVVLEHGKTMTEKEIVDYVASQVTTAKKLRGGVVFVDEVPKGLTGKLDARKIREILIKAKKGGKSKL

[3] = tested on: LitPpy, chimeric luciferase of LitWT residues 1-439 and PpyWT residues 440-550; test: as above; type: biochemical, Luciola italica / Photinus pyralis; conditions: pH 7.8
Protocol: (§1) Reactions were initiated by injection of solutions of the substrate being maintained at saturating concentration. Kinetic constants were determined using a nonlinear least squares method of the Enzyme Kinetics Pro software (SynTex), which fits data from the Michalis-Menten equation to a rectangular hyperbola. The corresponding kcat values were obtained by dividing the Vmax values by the amount (μmol) of each luciferase in the assay mixtures.

[4] = tested on: Ppy GR-TSLit, chimeric luciferase of Ppy GR-TS N-domain and LitWT C-domain; test: as above; type: biochemical, Photinus pyralis / Luciola italica; conditions: pH 7.8
Protocol: as §1

[5] = tested on: Ppy RE-TSLit, chimeric luciferase of Ppy RE-TS N-domain and LitWT C-domain; test: as above; type: biochemical, Photinus pyralis / Luciola italica; conditions: pH 7.8
Protocol: as §1

[6] = tested on: PpyLit (chimeric luciferase, SEQ ID NO: 8) variant F465R; test: as above; type: biochemical, Photinus pyralis / Luciola italica; conditions: pH 7.8
Protocol: as §1

[7] = tested on: PpyLit (chimeric luciferase, SEQ ID NO: 8) variant I232A/E354K; test: as above; type: biochemical, Photinus pyralis / Luciola italica; conditions: pH 7.8
Protocol: as §1

[8] = tested on: PpyLit (chimeric luciferase, SEQ ID NO: 8) variant I232A/I351V/E354K; test: as above; type: biochemical, Photinus pyralis / Luciola italica; conditions: pH 7.8
Protocol: as §1

[9] = tested on: PpyLit (chimeric luciferase, SEQ ID NO: 8) variant I351V/E354K/F465R; test: as above; type: biochemical, Photinus pyralis / Luciola italica; conditions: pH 7.8
Protocol: as §1

[10] = tested on: PpyLit (chimeric luciferase, SEQ ID NO: 8) variant I351V/E354K; test: as above; type: biochemical, Photinus pyralis / Luciola italica; conditions: pH 7.8
Protocol: as §1

[11] = tested on: PpyLit (chimeric luciferase, SEQ ID NO: 8) variant S284T/F465R; test: as above; type: biochemical, Photinus pyralis / Luciola italica; conditions: pH 7.8
Protocol: as §1

[12] = tested on: PpyLit (chimeric luciferase, SEQ ID NO: 8) variant S284T/I351V/E354K; test: as above; type: biochemical, Photinus pyralis / Luciola italica; conditions: pH 7.8
Protocol: as §1

[13] = tested on: PpyLit (chimeric luciferase, SEQ ID NO: 8) variant S284T; test: as above; type: biochemical, Photinus pyralis / Luciola italica; conditions: pH 7.8
Protocol: as §1

[14] = tested on: PpyLit, chimeric luciferase of PpyWT residues 1-439 and LitWT residues 440-550, SEQ ID NO: 8; test: as above; type: biochemical, Photinus pyralis / Luciola italica; conditions: pH 7.8
Protocol: as §1

[15] = tested on: PpyLit, chimeric luciferase of PpyWT residues 1-439 and LitWT residues 440-550, SEQ ID NO: 8; test: Rate of oxidative half-reaction with synthetic LH2-AMP; type: biochemical, Photinus pyralis / Luciola italica; conditions: faster than PpyWT; LH2-AMP as substrate, pH 7.8
Protocol: The estimated rates of the oxidative half-reactions were based on bioluminescence activity assays using synthetic LH2-AMP as the substrate. Assays (0.510 mL) in 50 mM glycylglycine buffer, pH 7.8, contained 0.1 mL aliquots of LH2-AMP solution (final concentration 1.5-35 μM) in 10 mM sodium acetate, pH 4.5. Immediately, light reactions were initiated by injections of 10 μL of luciferase enzymes (0.4-1 μg in CBA). Kinetic constants were determined using a nonlinear least squares method of the Enzyme Kinetics Pro software (SynTex), which fits data from the Michalis-Menten equation to a rectangular hyperbola. The corresponding kcat values were obtained by dividing the Vmax values by the final amounts (μmol) of each luciferase in the assay mixtures.

[16] = substrate: Nc1ncnc2c1ncn2[C@@H]1O[C@H](COP(=O)(O)OP(=O)(O)OP(=O)(O)O)[C@@H](O)[C@H]1O; test: purified protein, by the assay type; conditions: other: pH 7.8, LH2 saturating, 37.0 °C
[17] = substrate: O=C(O)[C@H]1CSC(c2nc3ccc(O)cc3s2)=N1; test: purified protein, by the assay type; conditions: other: pH 7.8, Mg-ATP saturating, 37.0 °C
[18] = read-out: Km LH2, Mg-ATP saturating

## O=C(O)c1csc(-c2nc3ccc(O)cc3s2)n1 [L, dehydroluciferin]
[1]
  rate of adenylate formation half reaction: ~1.35 fold

## O=C(O)[C@H]1CSC(c2nc3ccc(O)cc3s2)=N1 [LH2, D-firefly luciferin]
[2]
  kcat: 0.18 ± 0.01 s⁻¹
[3]; Vmax from LH2 Km measurement
  kcat: 0.033 ± 0.001 s⁻¹
[3]; [18]
  Km: 54 ± 5 µM
[4]; Vmax from LH2 Km measurement
  kcat: 0.079 ± 0.001 s⁻¹
[4]; [18]
  Km: 123 ± 9 µM
[5]; Vmax from LH2 Km measurement
  kcat: 0.09 ± 0.003 s⁻¹
[5]; [18]
  Km: 51 ± 3 µM
[6]; Vmax from LH2 Km measurement
  kcat: 0.34 ± 0.02 s⁻¹
[6]; [18]
  Km: 31 ± 3 µM
[7]; Vmax from LH2 Km measurement
  kcat: 0.25 ± 0.01 s⁻¹
[7]; [18]
  Km: 24 ± 3 µM
[8]; Vmax from LH2 Km measurement
  kcat: 0.24 ± 0.01 s⁻¹
[8]; [18]
  Km: 51 ± 5 µM
[9]; Vmax from LH2 Km measurement
  kcat: 0.29 ± 0.01 s⁻¹
[9]; [18]
  Km: 83 ± 3 µM
[10]; Vmax from LH2 Km measurement
  kcat: 0.30 ± 0.02 s⁻¹
[10]; [18]
  Km: 52 ± 5 µM
[11]; Vmax from LH2 Km measurement
  kcat: 0.10 ± 0.01 s⁻¹
[11]; [18]
  Km: 22 ± 3 µM
[12]; Vmax from LH2 Km measurement
  kcat: 0.13 ± 0.01 s⁻¹
[12]; [18]
  Km: 49 ± 5 µM
[13]; Vmax from LH2 Km measurement
  kcat: 0.10 ± 0.01 s⁻¹
[13]; [18]
  Km: 15 ± 2 µM
[14]; Vmax from LH2 Km measurement
  kcat: 0.32 ± 0.02 s⁻¹
[14]; [18]
  Km: 25 ± 2 µM

## Nc1ncnc2c1ncn2[C@@H]1O[C@H](COP(=O)(O)OC(=O)[C@H]2CSC(c3nc4ccc(O)cc4s3)=N2)[C@@H](O)[C@H]1O [LH2-AMP]
[15]
  rate of oxidative half reaction: ~1.35 fold

B1: LitWT, recombinant Luciola italica luciferase containing Lys547Gly/Met548Gly, SEQ ID NO: 6, with N-terminal peptide GPLGS (Luciola italica; K547G/M548G) (protein)
chain: METEREENVVYGPLPFYPIEEGSAGIQLHKYMQQYAKLGAIAFSNALTGVDISYQQYFDITCRLAEAMKNYGMKPEGHIALCSENCEEFFIPVLAGLYIGVTVAPTNEIYTLRELNHSLGIAQPTIVFSSRKGLPKVLEVQKTVTCIKTIVILDSKVNFGGYDCVETFIKKHVELGFPATSFVPIDVKDRKHHIALLMNSSGSTGLPKGVEITHEGTVTRFSHAKDPIYGNQVSPGTAILTVVPFHHGFGMFTTLGYFACGYRIVMLTKFDEELFLRTLQDYKCTSVILVPTLFAILNRSELLDKFDLSNLTEIASGGAPLAKEIGEAVARRFNLPGVRQGYGLTETTSAFIITPEGDDKPGASGKVVPLFKVKIIDLDTKKTLGVNRRGEICVKGPSLMLGYTNNPEATRETIDEEGWLHTGDIGYYDEDEHFFIVDRLKSLIKYKGYQVPPAELESVLLQHPNIFDAGVAGVPDSEAGELPGAVVVMEKGKTMTEKEIVDYVNSQVVNHKRLRGGVRFVDEVPKGLTGKIDAKVIREILKKPQAGG
[16]
  Km: 180 ± 14 µM
[17]
  Km: 90 ± 9 µM
  kcat: 0.14 ± 0.01 s⁻¹
